The values below come from patent publication US9629828B2, “Methods of treating traveler's diarrhea and hepatic encephalopathy” (priority 2008, dated 2017).

In data set [1] the test system is patients with HE. The data set is classed as in vivo, human. An excerpt: Total number of hospitalizations, duration of hospitalizations, HE endpoints, and cost of therapy were compared between the 2 treatment regimens.
Data set [2] deals with liver transplant patients who presented with HE. Nature of the data set: Chart review of 39 liver transplant patients with HE. The data set is classed as in vivo, human.
The conditions of data set [3]: male, human, in vivo.
Data set [4] relates to patients with HE. Conditions: rifaximin 1200 mg/day, neomycin 3 g/day; cited from earlier work.

As for `OC[C@H]1O[C@@H](O[C@@H]2[C@@H](CO)OC(O)(CO)[C@H]2O)[C@H](O)[C@@H](O)[C@H]1O` (mixture of isomers) [lactulose], in the data set on patients with HE [1] (end of treatment period), the “patients with Conn scores of 3 or 4” value came to 25%. Also, in the data set with patients with HE [1] (human, in vivo), the days hospitalized stood at 7.3 days; the “patients with asterixis at end of treatment period” value is 93%; the “patients with diarrhea, flatulence, and abdominal pain” value was “significantly more patients”. Moreover, in the data set on patients with HE [1] (rifaximin 400 mg 3 times/day, lactulose 30 mL twice daily), the hospitalizations came out at 1.6. For the same molecule, the hospitalizations reported entry in data set [2] (15 rifaximin, 24 lactulose patients) is “Nineteen”. The “average length of stay” value in data set [2] (human, in vivo) is given as 5.0 days.

As to `CO[C@H]1/C=C/O[C@@]2(C)Oc3c(C)c(O)c4c(O)c(c5c(nc6cc(C)ccn65)c4c3C2=O)NC(=O)/C(C)=C\C=C\[C@H](C)[C@H](O)[C@@H](C)[C@@H](O)[C@@H](C)[C@H](OC(C)=O)[C@@H]1C` [14C-Rifaximin], the “amount of radioactivity in urine (bound)” value in data set [3] is recorded as < 0.4 % of the dose.

Take neomycin: the “efficacy in patients with HE” value in the data set on patients with HE [4] was “comparable efficacy”.
